Assays:
[1] = Cytotoxicity studies (CC50) on peritoneal macrophages; format: cell-based, BALB/c mice; conditions: BALB/c, mouse, resident peritoneal macrophages, 48 h exposure, mean ± σ, n = 3
Procedure: (§1) Resident peritoneal macrophages were isolated from BALB/c mice. For the isolation, 1.5 mL of sterile thioglycolate medium was injected into the peritoneal cavity to induce non-infectious inflammation. Animals were sacrificed after 5 days, and peritoneal exudates were harvested by intraperitoneal lavage. Cold RPMI (6 mL) was injected into the peritoneal cavity. After 10 min, the injected fluid was withdrawn by the same syringe. From each animal, approximately 3-4 mL of medium was recovered. After centrifugation at 200 g for 15 min, macrophages were collected. […] The cytotoxicity of the drug specimen was evaluated by the CC50 value, which is the concentration required to kill 50% of the host cell population. Macrophages were first isolated from peritoneal lavage as described above. The cells were seeded into 96-well plates at 1x10^6 cells/mL in 200 μL of RPMI-1640 supplemented with 10% FCS, 20 mM L-glutamine, 16 mM NaHCO3, penicillin (50 U/mL) and streptomycin (50 μg/ mL) at 37°C in 5% CO2 for 4 h for adherence. To remove the non-adherent cells, each plate was washed two times with phosphate buffer saline (pH 7.2). […] Microscopic examinations were performed in duplicates with various concentrations of pure drugs or buparvaquone-loaded nanoparticles and also for control wells. The amastigotes cells were counted for all cases using a hemocytometer. The mean of the control wells was considered as 100% survival. The counts in the treated wells at various concentrations were converted into percentages. Giemsa-stained slides of the macrophages infected with amastigotes were observed under a light microscope. Then the numbers of amastigotes and infected macrophages per 100 cells were counted for each slide. The percentage (%) of inhibition was calculated by using the equation %[…]×100, (2) where C is the number of amastigotes/infected macrophages per 100 cells in the control well and T is the number of amastigotes/infected macrophages per 100 cells in the drug-treated well.

[2] = system: resident peritoneal macrophages; experiment: as above; format: cell-based, BALB/c mice; conditions: 48 h exposure, mean ± σ, n = 3, read-out: CC50
Procedure: as §1

[3] = system: wild-type AG83 L. donovani amastigotes in spleen; experiment: Leishman-Donovan Unit (LDU) assay in infected mice; format: in vivo, BALB/c mice
Procedure: Spleen smears were stained with Giemsa to confirm infection. The infected animals were divided into three groups consisting 4-5 animals per group. The groups were classified as the infected control group, BPQ treated group and BPQ+NP treated group. […] The infected control group was injected an equal volume of PBS during the entire dosing period. […] After that spleen impression smears were prepared on glass slides and stained with Giemsa to analyze infected visceral organ (spleen) microscopically. The parasite burdens were determined by evaluating the LDU values, which were calculated by multiplying the number of amastigotes counted per 500 nuclei with the spleen weight in mg.

[4] = system: L. infantum infection; design: method as in earlier work; conditions: against L. infantum infection; ref 32 (Reimao et al.); cited from earlier work

Compound: CC(C)(C)[C@H]1CC[C@H](CC2=C(O)C(=O)c3ccccc3C2=O)CC1 [BPQ, Buparvaquone]
- CC50 at 48 h [1]: > 300 µM
- CC50 [2]: 330 ± 30 µM
- Fold reduction of amastigote burden in spleen compared with the control group ([3]; 1 mg/kg i.p. for 5 consecutive days): 20 fold
- Spleen wt. ([3]; infected BALB/c mice, 1 mg/kg i.p. for 5 consecutive days, day 7 post-treatment, n = 5): 100 ± 10 mg
- Suppression / inhibition of parasite burden in vivo (summary statement) ([3]; spleen of infected mice, intraperitoneal, corresponding doses): 50%
- LDU (Leishman Donovan Unit = number of amastigotes per 500 nuclei × spleen weight in mg) ([3]; spleen, 1 mg/kg i.p. for 5 consecutive days): 2 ± 1 × 10^4
- Amastigotes per 500 nuclei ([3]; spleen, 1 mg/kg i.p. for 5 consecutive days, day 7 post-treatment): 200 ± 20
- IC50 [4]: 1.5 µM

— PMC8274846, “Biogenic nanoporous silicon carrier improves the efficacy of buparvaquone against resistant visceral leishmaniasis” (PLoS Neglected Tropical Diseases, 2021)
